The source made the active and inactive calls. The rule behind the calls is not given here. Bounds are passed on as bounds.

What is called Kd is the constant that tells how readily two partners part at equilibrium. A high value points to weaker binding. In general, Cmax refers to the maximum level reached in the sampled fluid or tissue. Usually IC50 stands for the point on the concentration scale where inhibition reaches its midpoint.

Data set [1] deals with Receptor-type tyrosine-protein kinase FLT3 (Homo sapiens), P36888 [UNDEFINED MUTATION]. The experiment in a line: Inhibition of human FLT3 ITD/F691L mutant expressed in mammalian system assessed as remaining enzyme activity at 1 uM relative to untreated control.
Data set [2] relates to MV4-11. The experiment in a line: Induction of apoptosis in human MV4-11 cells assessed as viable cells at 1000 nM after 48 hrs by annexin V/propidium iodide staining based FACS analysis (reference value: 90.60%). The data set is classed as functional. The note with it: MV4-11, 48 h, read-out: Activity. Background: Flow cytometry measures light scatter and fluorescence of single cells or particles in a stream.

Data set [3] concerns MV4-11. The experiment in a line: Induction of apoptosis in human MV4-11 cells assessed as viable cells at 10000 nM after 48 hrs by annexin V/propidium iodide staining based FACS analysis (reference value: 90.60%). It is filed as functional. The conditions noted are these: MV4-11, 48 h, read-out: Activity.
Data set [4] deals with Receptor-type tyrosine-protein kinase FLT3 (Homo sapiens, UniProt P36888, D835H). In words: Binding affinity to human partial length FLT3 D835H mutant (592 to 969 residues) expressed in bacterial expression system after 1 hr.
In data set [5] the test system is MV4-11. The experiment in a line: Antitumor activity against human MV4-11 cells xenografted in nude BALB/c mouse assessed as tumor growth inhibition administered orally qd for 14 days measured every 2 days. It is filed as functional. For orientation: A xenograft is tissue or cells of one species grown in another, often human tumour cells in immunodeficient mice.

The subject of data set [6] is MV4-11. The experiment in a line: Antitumor activity against human MV4-11 cells xenografted in nude BALB/c mouse assessed as tumor growth inhibition at 25 mg/kg, po qd for 14 days measured every 2 days. It is filed as functional. The conditions noted are these: MV4-11, po, read-out: TGI.
For data set [7], the system named is MV4-11. In words: Induction of apoptosis in human MV4-11 cells assessed as late apoptotic cells at 1 nM after 48 hrs by annexin V/propidium iodide staining based FACS analysis (reference value: 3.01%). The data set is classed as functional.
The nature of data set [8]: Cmax in overnight fasted Sprague-Dawley rat plasma at 10 mg/kg administered via oral gavage up to 24 hrs by LC-MS/MS analysis. It is filed as ADME, organism-based. Also noted: dose 10 mg/kg, route oral.
Data set [9] concerns MV4-11. The experiment in a line: Induction of apoptosis in human MV4-11 cells assessed as viable cells at 10 nM after 48 hrs by annexin V/propidium iodide staining based FACS analysis (reference value: 90.60%). It is filed as functional. The note with it: MV4-11, 48 h, read-out: Activity.
In data set [10] the test system is MV4-11. The experiment in a line: Induction of apoptosis in human MV4-11 cells assessed as necrotic cells at 1000 nM after 48 hrs by annexin V/propidium iodide staining based FACS analysis (reference value: 0.05%). The data set is classed as functional.
For data set [11], the target named is Dual specificity mitogen-activated protein kinase kinase 5 (Homo sapiens) (UniProt Q13163). The experiment in a line: Inhibition of human MEK5 expressed in mammalian system assessed as remaining enzyme activity at 1 uM relative to untreated control.
Sequence of Dual specificity mitogen-activated protein kinase kinase 5 (Homo sapiens) (Q13163 whole entry): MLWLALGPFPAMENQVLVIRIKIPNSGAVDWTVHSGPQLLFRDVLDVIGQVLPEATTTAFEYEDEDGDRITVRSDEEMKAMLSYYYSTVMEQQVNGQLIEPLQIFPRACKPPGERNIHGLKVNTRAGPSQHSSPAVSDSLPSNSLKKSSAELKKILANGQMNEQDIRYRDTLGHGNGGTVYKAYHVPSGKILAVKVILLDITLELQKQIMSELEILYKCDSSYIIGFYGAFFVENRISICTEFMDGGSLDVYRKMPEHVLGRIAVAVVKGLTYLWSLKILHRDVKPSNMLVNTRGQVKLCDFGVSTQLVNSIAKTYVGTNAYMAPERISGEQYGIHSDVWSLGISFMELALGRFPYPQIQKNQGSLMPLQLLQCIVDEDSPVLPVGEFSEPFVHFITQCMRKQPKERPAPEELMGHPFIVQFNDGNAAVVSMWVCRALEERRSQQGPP
Data set [12] addresses Receptor-type tyrosine-protein kinase FLT3 (Homo sapiens, UniProt P36888, F691L/ITD). In words: Binding affinity to human partial length FLT3 ITD/F691L mutant expressed in mammalian expression system after 1 hr.
Data set [13] deals with MV4-11. The experiment in a line: Induction of apoptosis in human MV4-11 cells assessed as early apoptotic cells at 10000 nM after 48 hrs by annexin V/propidium iodide staining based FACS analysis (reference value: 6.31%). It is filed as functional.
For data set [14], the system named is MV4-11. The experiment in a line: Cell cycle arrest in human MV4-11 cells assessed as accumulation at G2 phase at 1 nM after 48 hrs by PI/RNase staining based FACS analysis (reference value: 13.95%). The data set is classed as functional.
Data set [15] deals with MV4-11. The experiment in a line: Induction of apoptosis in human MV4-11 cells assessed as necrotic cells at 1 nM after 48 hrs by annexin V/propidium iodide staining based FACS analysis (reference value: 0.05%). The data set is classed as functional.
The test system of another data set is THP-1. The experiment in a line: Antiproliferative activity against human THP1 cells after 72 hrs by MTT assay. The data set is classed as functional, cell-based. The note with it: THP-1, 72 h. Background: Tetrazolium assays rely on reduction of a dye to a coloured formazan, in cell work by metabolically active cells.
Another data set relates to HL-60. The experiment in a line: Antiproliferative activity against human HL60 cells after 72 hrs by MTT assay. It is filed as functional, cell-based. The note with it: HL-60, 72 h.
Data set [16] has as its system MV4-11. The experiment in a line: Induction of apoptosis in human MV4-11 cells assessed as early apoptotic cells at 100 nM after 48 hrs by annexin V/propidium iodide staining based FACS analysis (reference value: 6.31%). It is filed as functional.
In data set [17] the test system is MV4-11. In words: Induction of apoptosis in human MV4-11 cells assessed as late apoptotic cells at 1000 nM after 48 hrs by annexin V/propidium iodide staining based FACS analysis (reference value: 3.01%). The data set is classed as functional.
The test system of a further data set is NCI-H209. The experiment in a line: Antiproliferative activity against human H209 cells after 72 hrs by MTT assay. It is filed as functional, cell-based. The conditions noted are these: NCI-H209, 72 h.
Data set [18] relates to MV4-11. The experiment in a line: Antitumor activity against human MV4-11 cells xenografted in nude BALB/c mouse assessed as induction of late stage apoptosis at 50 mg/kg, po qd measured after 1 to 3 days by TUNEL assay. It is filed as functional, organism-based.
The target in data set [19] is Receptor-type tyrosine-protein kinase FLT3 (Homo sapiens, UniProt P36888, D835V/ITD). In words: Binding affinity to human partial length FLT3 ITD/D835V mutant expressed in mammalian expression system after 1 hr.
In data set [20] the target is T1, Receptor-type tyrosine-protein kinase FLT3 (Homo sapiens, UniProt P36888).
T1 sequence (P36888 whole entry): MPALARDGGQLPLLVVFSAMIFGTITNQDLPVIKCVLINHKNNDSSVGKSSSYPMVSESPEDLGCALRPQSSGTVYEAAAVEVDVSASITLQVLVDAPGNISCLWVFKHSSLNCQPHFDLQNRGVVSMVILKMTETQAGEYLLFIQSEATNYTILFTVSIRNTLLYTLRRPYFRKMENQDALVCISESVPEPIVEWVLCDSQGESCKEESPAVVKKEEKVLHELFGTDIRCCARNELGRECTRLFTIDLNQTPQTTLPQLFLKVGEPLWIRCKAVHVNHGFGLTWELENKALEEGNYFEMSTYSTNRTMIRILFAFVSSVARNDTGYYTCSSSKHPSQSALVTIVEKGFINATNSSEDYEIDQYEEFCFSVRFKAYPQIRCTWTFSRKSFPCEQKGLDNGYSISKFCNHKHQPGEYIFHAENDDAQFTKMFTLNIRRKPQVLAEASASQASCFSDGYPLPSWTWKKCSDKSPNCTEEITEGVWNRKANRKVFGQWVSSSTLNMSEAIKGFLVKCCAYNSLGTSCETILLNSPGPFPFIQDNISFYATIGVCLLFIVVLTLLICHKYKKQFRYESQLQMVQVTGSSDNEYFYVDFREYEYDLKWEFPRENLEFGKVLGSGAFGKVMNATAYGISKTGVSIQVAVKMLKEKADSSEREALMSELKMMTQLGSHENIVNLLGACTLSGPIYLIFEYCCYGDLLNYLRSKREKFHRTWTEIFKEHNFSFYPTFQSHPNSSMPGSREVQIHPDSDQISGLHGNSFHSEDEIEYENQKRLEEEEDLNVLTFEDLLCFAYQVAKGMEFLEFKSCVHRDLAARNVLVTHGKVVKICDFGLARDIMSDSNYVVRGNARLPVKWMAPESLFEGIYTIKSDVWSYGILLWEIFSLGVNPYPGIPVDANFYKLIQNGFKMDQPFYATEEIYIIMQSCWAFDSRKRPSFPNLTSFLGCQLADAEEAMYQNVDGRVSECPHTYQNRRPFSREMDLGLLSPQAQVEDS
The experiment in a line: Binding affinity to human partial length wild type FLT3 (592 to 969 residues) expressed in bacterial expression system after 1 hr.

For data set [21], the system named is MV4-11. In words: Antiproliferative activity against human MV4-11 cells after 72 hrs by MTT assay. The data set is classed as functional, cell-based. The note with it: MV4-11, 72 h.

As for `Cc1cc(Nc2ncc3ncc(=O)n(-c4ccc(N)cc4)c3n2)ccc1N1CCN(C)CC1`, the Activity in [1] is below 1%; in the data set with MV4-11 [7], 3.49%; in the data set on MV4-11 [10] it was 0.05%; in [11], below 1%; in the data set on MV4-11 [13] it was 68.6%; in the data set with MV4-11 [14], 12.59%. Also, the Activity with MV4-11 [15] amounted to 0.1%; with MV4-11 [16], 23%; in the data set on MV4-11 [17] it was 34.3%. The viability at 1 µM in the data set on MV4-11 [2] was determined as 27.3%. In the data set with MV4-11 [3], the viability at 10 µM is 0.02%. The Kd was 1.8 nM in data set [4], 5.7 nM in data set [12], 0.79 nM in data set [19] and 5 nM in data set [20]. In addition, the TGI result with MV4-11 [5] was “Dose-dependent effect”. Besides, the inhibition in vivo at 25 mg/kg in the data set with MV4-11 [6] was 87%. This molecule had a Cmax in data set [8] of 41 ng/mL. Also, the viability at 0.01 µM with MV4-11 [9] came out at 86.9%. The concentration for half-maximal inhibition (IC50) is above 10 µM with THP-1, 1380 nM with HL-60, above 10 µM in the data set on NCI-H209 and 51 nM in the data set on MV4-11 [21]. Also, in the data set on MV4-11 [18], the result was Active.

The record behind these values is ChEMBL document CHEMBL4477208, “Discovery and Rational Design of Pteridin-7(8H)-one-Based Inhibitors Targeting FMS-like Tyrosine Kinase 3 (FLT3) and Its Mutants” (J Med Chem, 2016).
